Results taken from patent publication US8471005B2 (Cephalon, Inc., priority 2008, dated 2013).
pIC50: −log10 of the molar value.

Columns and labels:
ALK = target: T1, ALK (Homo sapiens, UniProt Q9UM73); assay: ALK Kinase Assay (ELISA/TRF, PLC-γ substrate); type: biochemical; settings: ALK kinase inhibition, 1 μM ATP; read-out: ALK Potency
T1 construct: host or cells: baculovirus expression system
How it was run: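 PLC-γ coat 10 μg/mL in TBS; ALK 30 ng/ml added to start; 37° C, 15 min; Eu-N1 PT66 antibody detection (TRF). IC50: % inhibition vs log10 [cpd], variable-slope sigmoidal fit.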

JAK2 = target: T2, JAK2 (Homo sapiens, UniProt O60674); assay: Recombinant Human JAK2 Kinase Assay (TRF); type: biochemical; settings: JAK2 kinase inhibition, 0.2 μM ATP; read-out: JAK2 Potency
T2 construct: host or cells: baculovirus expression system
T2 sequence (O60674 whole entry): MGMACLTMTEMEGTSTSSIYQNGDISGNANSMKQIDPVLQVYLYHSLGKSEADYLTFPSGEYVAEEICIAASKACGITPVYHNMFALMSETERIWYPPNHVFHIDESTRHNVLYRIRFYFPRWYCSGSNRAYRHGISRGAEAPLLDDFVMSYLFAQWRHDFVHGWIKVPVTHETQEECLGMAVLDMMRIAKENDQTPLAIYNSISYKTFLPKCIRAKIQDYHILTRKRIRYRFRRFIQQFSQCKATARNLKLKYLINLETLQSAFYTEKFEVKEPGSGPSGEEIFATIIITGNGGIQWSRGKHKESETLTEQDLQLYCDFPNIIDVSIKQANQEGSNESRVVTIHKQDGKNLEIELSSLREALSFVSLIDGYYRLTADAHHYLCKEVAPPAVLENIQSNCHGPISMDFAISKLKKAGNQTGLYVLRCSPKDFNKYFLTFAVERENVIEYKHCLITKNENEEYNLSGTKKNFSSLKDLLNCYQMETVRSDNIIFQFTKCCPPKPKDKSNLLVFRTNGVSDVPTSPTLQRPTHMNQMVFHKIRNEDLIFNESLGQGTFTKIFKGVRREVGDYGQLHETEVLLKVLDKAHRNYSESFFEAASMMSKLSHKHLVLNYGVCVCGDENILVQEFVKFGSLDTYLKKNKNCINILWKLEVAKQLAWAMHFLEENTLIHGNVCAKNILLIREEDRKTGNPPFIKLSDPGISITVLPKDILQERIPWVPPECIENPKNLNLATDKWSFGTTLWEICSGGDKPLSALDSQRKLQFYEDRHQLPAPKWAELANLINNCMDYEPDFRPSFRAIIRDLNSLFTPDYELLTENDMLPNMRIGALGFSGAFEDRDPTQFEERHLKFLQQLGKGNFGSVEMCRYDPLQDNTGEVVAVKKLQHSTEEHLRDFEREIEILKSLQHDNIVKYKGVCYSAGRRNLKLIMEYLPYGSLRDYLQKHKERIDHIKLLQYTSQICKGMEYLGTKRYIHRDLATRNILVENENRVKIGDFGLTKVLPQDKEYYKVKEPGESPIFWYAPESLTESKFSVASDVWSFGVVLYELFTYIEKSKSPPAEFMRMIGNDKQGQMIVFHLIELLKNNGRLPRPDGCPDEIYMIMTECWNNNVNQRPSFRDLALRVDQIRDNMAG
How it was run: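 Baculovirus-expressed JAK2 (15 ng/ml) phosphorylated a biotinylated 15-mer peptide captured on Neutravidin-coated plates, in 20 mM HEPES pH 7.2 with 0.2 μM ATP, 1 mM MnCl2, 0.1% BSA and 2.5% DMSO. Reaction ran 20 min at room temperature; phosphopeptide was detected by time-resolved fluorescence with Eu-N1-labelled PY100 antibody.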

T1 sequence (Q9UM73 19-1620): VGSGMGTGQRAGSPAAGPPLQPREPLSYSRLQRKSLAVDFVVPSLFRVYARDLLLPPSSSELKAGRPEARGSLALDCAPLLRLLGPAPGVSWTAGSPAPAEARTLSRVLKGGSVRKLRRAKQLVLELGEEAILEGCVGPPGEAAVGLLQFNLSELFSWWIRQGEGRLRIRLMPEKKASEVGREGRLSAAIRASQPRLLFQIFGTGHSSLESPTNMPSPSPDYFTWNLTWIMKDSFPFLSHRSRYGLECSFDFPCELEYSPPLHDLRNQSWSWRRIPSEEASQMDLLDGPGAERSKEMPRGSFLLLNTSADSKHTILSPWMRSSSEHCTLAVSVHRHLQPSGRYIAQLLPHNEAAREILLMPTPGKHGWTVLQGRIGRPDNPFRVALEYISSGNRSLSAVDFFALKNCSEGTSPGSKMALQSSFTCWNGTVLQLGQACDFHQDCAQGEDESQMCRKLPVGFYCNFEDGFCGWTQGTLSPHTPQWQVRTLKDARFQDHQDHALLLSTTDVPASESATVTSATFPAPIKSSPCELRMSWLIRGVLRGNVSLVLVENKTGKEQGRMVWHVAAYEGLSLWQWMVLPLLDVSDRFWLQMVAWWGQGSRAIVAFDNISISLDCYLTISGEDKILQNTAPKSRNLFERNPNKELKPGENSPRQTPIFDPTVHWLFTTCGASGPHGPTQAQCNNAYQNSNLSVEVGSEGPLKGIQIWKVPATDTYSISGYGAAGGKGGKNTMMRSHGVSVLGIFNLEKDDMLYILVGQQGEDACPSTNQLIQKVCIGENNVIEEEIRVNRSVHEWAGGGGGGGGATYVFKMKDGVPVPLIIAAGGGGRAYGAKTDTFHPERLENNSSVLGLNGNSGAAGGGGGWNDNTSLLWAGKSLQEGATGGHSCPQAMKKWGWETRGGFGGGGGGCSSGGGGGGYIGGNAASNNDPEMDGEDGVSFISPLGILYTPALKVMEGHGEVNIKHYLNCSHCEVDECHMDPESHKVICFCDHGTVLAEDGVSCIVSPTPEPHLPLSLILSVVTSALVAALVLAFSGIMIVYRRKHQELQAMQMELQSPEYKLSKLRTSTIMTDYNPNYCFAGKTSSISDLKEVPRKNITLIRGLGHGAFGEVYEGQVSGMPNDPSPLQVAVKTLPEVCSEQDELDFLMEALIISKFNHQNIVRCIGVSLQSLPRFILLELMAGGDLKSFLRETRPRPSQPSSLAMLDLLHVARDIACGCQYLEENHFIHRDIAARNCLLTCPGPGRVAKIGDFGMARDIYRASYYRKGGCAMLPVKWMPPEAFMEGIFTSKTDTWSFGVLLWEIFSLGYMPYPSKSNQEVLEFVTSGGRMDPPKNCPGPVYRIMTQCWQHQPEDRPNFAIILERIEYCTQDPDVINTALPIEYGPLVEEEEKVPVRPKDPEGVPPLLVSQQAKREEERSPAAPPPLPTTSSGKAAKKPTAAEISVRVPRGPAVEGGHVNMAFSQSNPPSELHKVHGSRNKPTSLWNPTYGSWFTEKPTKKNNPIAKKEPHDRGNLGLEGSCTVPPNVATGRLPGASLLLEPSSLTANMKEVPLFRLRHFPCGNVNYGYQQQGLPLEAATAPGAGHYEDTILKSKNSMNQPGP

Structure (SMILES)	pIC50 (ALK)	pIC50 (JAK2)
CN1CCC(c2ccc(Nc3ncc4ccc(-c5cccnc5)n4n3)cc2)CC1 [Example 1179, [4-(1-Methyl-piperidin-4-yl)-phenyl]-(7-pyridin-3-yl-pyrrolo[2,1-f][1,2,4]triazin-2-yl)-amine]	6.00 to 7.00	> 7.00
COc1ccc(-c2ccc3cnc(Nc4ccc(C5CCN(C)CC5)cc4)nn23)cn1 [Example 1180, [7-(6-Methoxy-pyridin-3-yl)-pyrrolo[2,1-f][1,2,4]triazin-2-yl]-[4-(1-methyl-piperidin-4-yl)-phenyl]-amine]	6.00 to 7.00	> 7.00
Cn1cc(-c2ccc3cnc(Nc4ccc(N5CCN(CCO)CC5)cc4)nn23)cn1 [Example 1181, 2-(4-{4-[7-(1-Methyl-1H-pyrazol-4-yl)-pyrrolo[2,1-f][1,2,4]triazin-2-ylamino]-phenyl}-piperazin-1-yl)-ethanol]	6.00 to 7.00	> 7.00
CN1CCN(c2ccc(Nc3ncc4ccc(-c5ccccc5OCC(=O)O)n4n3)cc2)CC1 [Example 1182, (2-{2-[4-(4-Methyl-piperazin-1-yl)-phenylamino]-pyrrolo[2,1-f][1,2,4]triazin-7-yl}-phenoxy)-acetic acid]	6.00 to 7.00	> 7.00
COc1ccccc1-c1ccc2cnc(Nc3ccn(CCN4CCOCC4)n3)nn12 [Example 1183, [7-(2-Methoxy-phenyl)-pyrrolo[2,1-f][1,2,4]triazin-2-yl]-[1-(2-morpholin-4-yl-ethyl)-1H-pyrazol-3-yl]-amine]	6.00 to 7.00	> 7.00
c1cncc(-c2ccc3cnc(Nc4ccn(CCN5CCOCC5)n4)nn23)c1 [Example 1184, [1-(2-Morpholin-4-yl-ethyl)-1H-pyrazol-3-yl]-(7-pyridin-3-yl-pyrrolo[2,1-f][1,2,4]triazin-2-yl)-amine]	< 5.00	> 7.00
CS(=O)(=O)Nc1cccc(-c2ccc3cnc(Nc4ccn(CCN5CCOCC5)n4)nn23)c1 [Example 1185, N-(3-{2-[1-(2-Morpholin-4-yl-ethyl)-1H-pyrazol-3-ylamino]-pyrrolo[2,1-f][1,2,4]triazin-7-yl}-phenyl)-methanesulfonamide]	5.00 to 6.00	> 7.00
CN(c1ccccc1-c1ccc2cnc(Nc3ccn(CCN4CCOCC4)n3)nn12)S(C)(=O)=O [Example 1186, N-Methyl-N-(2-{2-[1-(2-morpholin-4-yl-ethyl)-1H-pyrazol-3-ylamino]-pyrrolo[2,1-f][1,2,4]triazin-7-yl}-phenyl)-methanesulfonamide]	6.00 to 7.00	> 7.00
Cn1cc(-c2ccc3cnc(Nc4ccc(N5CCC(N6CCOCC6)CC5)cc4)nn23)cn1 [Example 1187, [7-(1-Methyl-1H-pyrazol-4-yl)-pyrrolo[2,1-f][1,2,4]triazin-2-yl]-[4-(4-morpholin-4-yl-piperidin-1-yl)-phenyl]-amine]	6.00 to 7.00	> 7.00
CN1CCN(C(=O)C2CCN(c3ccc(Nc4ncc5ccc(-c6cnn(C)c6)n5n4)cc3)CC2)CC1 [Example 1188, (4-Methyl-piperazin-1-yl)-(1-{4-[7-(1-methyl-1H-pyrazol-4-yl)-pyrrolo[2,1-f][1,2,4]triazin-2-ylamino]-phenyl}-piperidin-4-yl)-methanone]	6.00 to 7.00	> 7.00
CCN1CCOC(c2ccc(Nc3ncc4ccc(-c5cnn(C)c5)n4n3)cc2)C1 (stereo not shown) [Example 1189, [4-(4-Ethyl-morpholin-2-yl)-phenyl]-[7-(1-methyl-1H-pyrazol-4-yl)-pyrrolo[2,1-f][1,2,4]triazin-2-yl]-amine]	6.00 to 7.00	> 7.00
COc1ccccc1-c1ccc2cnc(Nc3cnn(CCN4CCOCC4)c3)nn12 [Example 1190, [7-(2-Methoxy-phenyl)-pyrrolo[2,1-f][1,2,4]triazin-2-yl]-[1-(2-morpholin-4-yl-ethyl)-1H-pyrazol-4-yl]-amine]	5.00 to 6.00	> 7.00
c1cncc(-c2ccc3cnc(Nc4cnn(CCN5CCOCC5)c4)nn23)c1 [Example 1191, [1-(2-Morpholin-4-yl-ethyl)-1H-pyrazol-4-yl]-(7-pyridin-3-yl-pyrrolo[2,1-f][1,2,4]triazin-2-yl)-amine]	< 5.00	> 7.00
COc1ccc(-c2ccc3cnc(Nc4cnn(CCN5CCOCC5)c4)nn23)cn1 [Example 1192, [7-(6-Methoxy-pyridin-3-yl)-pyrrolo[2,1-f][1,2,4]triazin-2-yl]-[1-(2-morpholin-4-yl-ethyl)-1H-pyrazol-4-yl]-amine]	5.00 to 6.00	> 7.00
CN(c1ccccc1-c1ccc2cnc(Nc3cnn(CCN4CCOCC4)c3)nn12)S(C)(=O)=O [Example 1193, N-Methyl-N-(2-{2-[1-(2-morpholin-4-yl-ethyl)-1H-pyrazol-4-ylamino]-pyrrolo[2,1-f][1,2,4]triazin-7-yl}-phenyl)-methanesulfonamide]	5.00 to 6.00	> 7.00
CN1CCN(c2ccc(Nc3ncc4ccc(-c5cccc(NS(C)(=O)=O)c5)n4n3)nc2)CC1 [Example 1194, N-(3-{2-[5-(4-Methyl-piperazin-1-yl)-pyridin-2-ylamino]-pyrrolo[2,1-f][1,2,4]triazin-7-yl}-phenyl)-methanesulfonamide]	6.00 to 7.00	> 7.00
CS(=O)(=O)Nc1cccc(-c2ccc3cnc(Nc4cnn(CCN5CCOCC5)c4)nn23)c1 [Example 1195, N-(3-{2-[1-(2-Morpholin-4-yl-ethyl)-1H-pyrazol-4-ylamino]-pyrrolo[2,1-f][1,2,4]triazin-7-yl}-phenyl)-methanesulfonamide]	5.00 to 6.00	> 7.00
CN1CCN(c2ccc(Nc3ncc4ccc(-c5ccc(C=O)o5)n4n3)cc2)CC1 [Example 1196, 5-{2-[4-(4-Methyl-piperazin-1-yl)-phenylamino]-pyrrolo[2,1-f][1,2,4]triazin-7-yl}-furan-2-carbaldehyde]	6.00 to 7.00	> 7.00
CN1CCN(c2ccc(Nc3ncc4ccc(-c5ccccc5N(C)S(C)(=O)=O)n4n3)nc2)CC1 [Example 1197, N-Methyl-N-(2-{2-[5-(4-methyl-piperazin-1-yl)-pyridin-2-ylamino]-pyrrolo[2,1-f][1,2,4]triazin-7-yl}-phenyl)-methanesulfonamide]	6.00 to 7.00	> 7.00
CN1CCN(c2ccc(Nc3ncc4ccc(-c5cncc(CNCCS(C)(=O)=O)c5)n4n3)cc2)CC1 [Example 1198, (7-{5-[(2-Methanesulfonyl-ethylamino)-methyl]-pyridin-3-yl}-pyrrolo[2,1-f][1,2,4]triazin-2-yl)-[4-(4-methyl-piperazin-1-yl)-phenyl]-amine]	5.00 to 6.00	> 7.00
CN1CCN(c2ccc(Nc3ncc4ccc(-c5ccccc5CNCCS(C)(=O)=O)n4n3)cc2)CC1 [Example 1199, (7-{2-[(2-M ethanesulfonyl-ethylamino)-methyl]-phenyl}-pyrrolo[2,1-f][1,2,4]triazin-2-yl)-[4-(4-methyl-piperazin-1-yl)-phenyl]-amine]	5.00 to 6.00	> 7.00
CN1CCN(c2ccc(Nc3ncc4ccc(-c5ccc(CNCCS(C)(=O)=O)o5)n4n3)cc2)CC1 [Example 1200, (7-{5-[(2-Methanesulfonyl-ethylamino)-methyl]-furan-2-yl}-pyrrolo[2,1-f][1,2,4]triazin-2-yl)-[4-(4-methyl-piperazin-1-yl)-phenyl]-amine]	6.00 to 7.00	> 7.00
Cn1cc(-c2ccc3cnc(Nc4ccc5c(c4)CCC(N4CCOCC4)CC5)nn23)cn1 (stereo not shown) [Example 1201, [7-(1-Methyl-1H-pyrazol-4-yl)-pyrrolo[2,1-f][1,2,4]triazin-2-yl]-(7-morpholin-4-yl-6,7,8,9-tetrahydro-5H-benzocyclohepten-2-yl)-amine]	6.00 to 7.00	> 7.00
COc1ccccc1-c1ccc2cnc(Nc3ccc(N4CCOCC4)cn3)nn12 [Example 1202, [7-(2-Methoxy-phenyl)-pyrrolo[2,1-f][1,2,4]triazin-2-yl]-(5-morpholin-4-yl-pyridin-2-yl)-amine]	5.00 to 6.00	> 7.00
CN1CCN(c2ccc(Nc3ncc4ccc(-c5ccc(C=O)cc5)n4n3)cc2)CC1 [Example 1203, 4-{2-[4-(4-Methyl-piperazin-1-yl)-phenylamino]-pyrrolo[2,1-f][1,2,4]triazin-7-yl}-benzaldehyde]	6.00 to 7.00	> 7.00
CCN(CC)C1CCN(c2ccc(Nc3ncc4ccc(-c5ccccc5N(C)S(C)(=O)=O)n4n3)cc2)CC1 [Example 1204, N-(2-{2-[4-(4-Diethylamino-piperidin-1-yl)-phenylamino]-pyrrolo[2,1-f][1,2,4]triazin-7-yl}-phenyl)-N-methyl-methanesulfonamide]	> 7.00	> 7.00
CCN(CC)C1CCN(c2ccc(Nc3ncc4ccc(-c5cccc(NS(=O)(=O)C(C)(C)C)c5)n4n3)cc2)CC1 [Example 1205, 2-Methyl-propane-2-sulfonic acid (3-{2-[4-(4-diethylamino-piperidin-1-yl)-phenylamino]-pyrrolo[2,1-f][1,2,4]triazin-7-yl}-phenyl)-amide]	6.00 to 7.00	> 7.00
CCN(CC)C1CCN(c2ccc(Nc3ncc4ccc(-c5ccc(OC)nc5)n4n3)cc2)CC1 [Example 1206, [4-(4-Diethylamino-piperidin-1-yl)-phenyl]-[7-(6-methoxy-pyridin-3-yl)-pyrrolo[2,1-f][1,2,4]triazin-2-yl]-amine]	6.00 to 7.00	> 7.00
CCN(CC)C1CCN(c2ccc(Nc3ncc4ccc(-c5cnn(C)c5)n4n3)cc2)CC1 [Example 1207, [4-(4-Diethylamino-piperidin-1-yl)-phenyl]-[7-(1-methyl-1H-pyrazol-4-yl)-pyrrolo[2,1-f][1,2,4]triazin-2-yl]-amine]	6.00 to 7.00	> 7.00
